pIC50: −log10 of the molar value.

In the assay the test system is HBeAg (surrogate marker for cccDNA) in HepDES19 cells. The experiment in a line: Engineered HepDES19 primary screen assay (HBeAg ELISA). Format: cell-based, HBV. The settings on record: Hepatitis B virus, 120 h, HBeAg in culture supernatant, 5 days incubation, read-out: IC50 (HepDES19 primary screen assay, inhibition of extracellular HBeAg level). The gist of the method:
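HepDES19 cells pre-induced by Tet withdrawal for 8 days, frozen, then seeded and dosed after 24 h with half-log compound dilutions (1% DMSO final). After 5 days at 37 °C, HBeAg measured by ELISA and viability by CCK-8; IC50 from 4-parameter logistic fit.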

The term pIC50 denotes −log10 of the IC50, conventionally taken in molar units. Consider `Cc1ccc(-c2cc(=O)c3cccc(Cl)c3o2)c(OCCCNC(=O)C(=O)O)c1` [Example 120], for which the pIC50 is 5.53.

As for `Cc1ccc(-c2cc(=O)c3cccc(Cl)c3o2)c(OCCNC(=O)C(=O)O)c1` [Example 121], the pIC50 was 5.37. For `COc1cc(OCCNC(=O)C(=O)O)c(-c2cc(=O)c3cccc(Cl)c3o2)cc1Br` [Example 122] the value was 5.11; for `O=C(O)CNCCOc1cc(C(F)(F)F)ccc1-c1cc(=O)c2cccc(Cl)c2o1` [Example 123], 5.29; for `O=C(O)CCNCCOc1cc(C(F)(F)F)ccc1-c1cc(=O)c2cccc(Cl)c2o1` [Example 124], 5.23. For `O=C(O)C(=O)N1CC(Oc2cc(C(F)(F)F)ccc2-c2cc(=O)c3cccc(Cl)c3o2)C1` [Example 127] the value was 7.10. For `O=C(O)c1cccc(CN2CCC(Oc3cc(Br)ccc3-c3cc(=O)c4cccc(Cl)c4o3)CC2)c1` [Example 128] the value was 6.57; for `O=C(O)C(=O)N1CCC(Oc2cc(C(F)(F)F)ccc2-c2cc(=O)c3cccc(Cl)c3o2)CC1` [Example 129], 5.32; for `O=C(O)C(=O)N1CC[C@@H](Oc2cc(C(F)(F)F)ccc2-c2cc(=O)c3cccc(Cl)c3o2)C1` [Example 130], 5.32. For the compound `Cc1ccc(-c2cc(=O)c3cccc(Cl)c3o2)c(O[C@H]2CCN(C(=O)C(=O)O)C2)c1` [Example 132], the pIC50 was 6.46. For `CN(CCCOc1cc(C(F)(F)F)ccc1-c1cc(=O)c2cccc(Cl)c2o1)CC(=O)O` [Example 134, 2-[3-[2-(8-chloro-4-oxo-chromen-2-yl)-5-(trifluoromethyl)phenoxy]propyl-methyl-amino]acetic acid] the value was 5.09; for `Cc1ccc(-c2cc(=O)c3cccc(Cl)c3o2)c(OCCN(C(=O)C(=O)O)C2CC2)c1` [Example 135, 2-[2-[2-(8-chloro-4-oxo-chromen-2-yl)-5-methyl-phenoxy]ethyl-cyclopropyl-amino]-2-oxo-acetic acid], 6.68; for `CCNS(=O)(=O)N(C)CCOc1cc(C)ccc1-c1cc(=O)c2cccc(Cl)c2o1` [Example 136, 8-chloro-2-[2-[2-[ethylsulfamoyl(methyl)amino]ethoxy]-4-methyl-phenyl]-4-oxo-chromene], 6.24. Next, `CCOC(=O)C(=O)N(C)CCOc1cc(C)ccc1-c1cc(=O)c2cccc(Cl)c2o1` [Example 137, ethyl 2-[2-[2-(8-chloro-4-oxo-chromen-2-yl)-5-methyl-phenoxy]ethyl-methyl-amino]-2-oxo-acetate]: 5.47; `CCOC(=O)C(=O)N(CCCOc1cc(C(F)(F)F)ccc1-c1cc(=O)c2cccc(Cl)c2o1)S(=O)(=O)CC` [Example 138, ethyl 2-[3-[2-(8-chloro-4-oxo-chromen-2-yl)-5-(trifluoromethyl)phenoxy]propyl-ethylsulfonyl-amino]-2-oxo-acetate]: 5.34; `O=C(O)C1CC(N(CCCOc2cc(C(F)(F)F)ccc2-c2cc(=O)c3cccc(Cl)c3o2)S(=O)(=O)C2CC2)C1` (stereo not shown) [Example 139, 3-[3-[2-(8-chloro-4-oxo-chromen-2-yl)-5-(trifluoromethyl)phenoxy]propyl-cyclopropylsulfonyl-amino]cyclobutanecarboxylic acid]: 4.99. On to `O=C(O)CN(CCCOc1cc(C(F)(F)F)ccc1-c1cc(=O)c2cccc(Cl)c2o1)CC(=O)O` [Example 140], for which the pIC50 is 6.72.

Take `O=c1cc(-c2ccc(C(F)(F)F)cc2OCCCN([C@H]2C[C@@H](C(=O)O)C2)S(=O)(=O)c2ccccc2)oc2c(Cl)cccc12` [Example 141]: the pIC50 was 6.46.

With `O=c1cc(-c2ccc(C(F)(F)F)cc2OCCCN([C@H]2C[C@H](C(=O)O)C2)S(=O)(=O)c2ccccc2)oc2c(Cl)cccc12` [Example 142], the pIC50 was 6.13. Consider `O=C(O)CN(CCCOc1cc(C(F)(F)F)ccc1-c1cc(=O)c2cccc(Cl)c2o1)S(=O)(=O)c1ccccc1` [Example 143], for which the pIC50 is 5.62. For the compound `CC(=O)N(CCCOc1cc(C(F)(F)F)ccc1-c1cc(=O)c2cccc(Cl)c2o1)CC(=O)O` [Example 144], the pIC50 is 4.94.

For `O=C(O)CN(CCCOc1cc(C(F)(F)F)ccc1-c1cc(=O)c2cccc(Cl)c2o1)S(=O)(=O)C1CC1` [Example 145], the pIC50 is 4.84.

As for `COc1ccc(-c2cc(=O)c3cccc(Cl)c3o2)c(OCCNC(=O)C(N)=O)c1` [Example 147, N′-[2-[2-(8-chloro-4-oxo-chromen-2-yl)-5-methoxy-phenoxy]ethyl]oxamide], the pIC50 is 5.92. Turning to `O=C(NCCOc1cc(C(F)(F)F)ccc1-c1cc(=O)c2cccc(Cl)c2o1)C(=O)NC1CC1` [Example 148, N-[2-[2-(8-chloro-4-oxo-chromen-2-yl)-5-(trifluoromethyl)phenoxy]ethyl]-N′-cyclopropyl-oxamide], the pIC50 was 5.92.

As to `O=C(NCCCOc1cc(C(F)(F)F)ccc1-c1cc(=O)c2cccc(Cl)c2o1)C(=O)NS(=O)(=O)C1CC1` [Example 149, N-[3-[2-(8-chloro-4-oxo-chromen-2-yl)-5-(trifluoromethyl)phenoxy]propyl]-N′-cyclopropylsulfonyl-oxamide], the pIC50 was 5.06. As to `Cc1ccc(-c2cc(=O)c3cccc(Cl)c3o2)c(OCCNC(=O)C(=O)N2CC[C@H](O)C2)c1` [Example 150, N-[2-[2-(8-chloro-4-oxo-chromen-2-yl)-5-methyl-phenoxy]ethyl]-2-[(3S)-3-hydroxypyrrolidin-1-yl]-2-oxo-acetamide], the negative-log IC50 (pIC50) is 4.91. Take `Cc1ccc(-c2cc(=O)c3cccc(Cl)c3o2)c(OCCNC(=O)N[C@@H](C)C(=O)O)c1` [Example 151, (2S)-2-[2-[2-(8-chloro-4-oxo-chromen-2-yl)-5-methyl-phenoxy]ethylcarbamoylamino]propanoic acid]: the pIC50 was 6.20. For `Cc1ccc(-c2cc(=O)c3cccc(Cl)c3o2)c(OCCN2C(=O)N[C@@H](C(C)C)C2=O)c1` [Example 152] the value was 6.32; for `CC(C)[C@@H]1NC(=O)N(CCOc2cc(C(F)(F)F)ccc2-c2cc(=O)c3cccc(Cl)c3o2)C1=O` [Example 153], 6.08. In the case of `Cc1ccc(-c2cc(=O)c3cccc(Cl)c3o2)c(OCCNC(=O)NCC(=O)O)c1` [Example 154], the pIC50 is 5.84. As for `C[C@@H]1NC(=O)N(CCOc2cc(C(F)(F)F)ccc2-c2cc(=O)c3cccc(Cl)c3o2)C1=O` [Example 155], the pIC50 is 5.29. In the case of `Cc1ccc(S(=O)(=O)NC(=O)NCCCOc2cc(C)ccc2-c2cc(=O)c3cccc(Cl)c3o2)cc1` [Example 156, 1-[3-[2-(8-chloro-4-oxo-chromen-2-yl)-5-methyl-phenoxy]propyl]-3-(p-tolylsulfonyl)urea], the pIC50 was 5.38.

Regarding `Cc1ccc(S(=O)(=O)NC(=O)NCCOc2cc(C(F)(F)F)ccc2-c2cc(=O)c3cccc(Cl)c3o2)cc1` [Example 158, 1-[2-[2-(8-chloro-4-oxo-chromen-2-yl)-5-(trifluoromethyl)phenoxy]ethyl]-3-(p-tolylsulfonyl)urea], the negative logarithm of the IC50 (pIC50) was 5.08.

For the compound `NS(=O)(=O)NCCOc1cc(C(F)(F)F)ccc1-c1cc(=O)c2cccc(Cl)c2o1` [Example 159, 8-chloro-4-oxo-2-[2-[2-(sulfamoylamino)ethoxy]-4-(trifluoromethyl)phenyl]chromene], the pIC50 is 6.08.

For the origin of these results see US20220169639A1 (priority 2018, published 2022).
